The molecules below were run against T1, Gonadotropin-releasing hormone receptor (Rattus norvegicus, UniProt P30969) (assay: Inhibition of rat GnRH receptor binding).
T1 sequence (P30969 whole entry): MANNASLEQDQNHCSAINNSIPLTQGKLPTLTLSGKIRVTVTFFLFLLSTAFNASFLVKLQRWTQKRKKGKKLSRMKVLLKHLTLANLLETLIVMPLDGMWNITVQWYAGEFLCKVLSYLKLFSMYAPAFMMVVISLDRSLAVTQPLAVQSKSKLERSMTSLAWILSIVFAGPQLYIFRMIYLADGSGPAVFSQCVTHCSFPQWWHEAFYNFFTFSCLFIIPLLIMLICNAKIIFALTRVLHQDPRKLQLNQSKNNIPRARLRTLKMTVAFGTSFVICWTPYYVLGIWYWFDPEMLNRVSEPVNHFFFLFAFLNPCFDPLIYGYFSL

Question: Which IC50 does the source give for Cc1cc(C)cc(-c2[nH]c3ccccc3c2CCNCCCCc2ccc(N)cc2)c1 here?
Answer: The IC50 was 300 nM.

Question: How did the IC50 turn out when CCS(=O)(=O)Nc1ccc(CCCCNCCc2c(-c3cc(C)cc(C)c3)[nH]c3ccccc23)cc1 was run?
Answer: Its IC50 is 200 nM.

Question: Which IC50 does the source give for CCNS(=O)(=O)Nc1ccc(CCCCNCCc2c(-c3cc(C)cc(C)c3)[nH]c3ccccc23)cc1 here?
Answer: Its IC50 is 40 nM.

Question: Cc1cc(C)cc(-c2[nH]c3ccccc3c2CCNCCCCc2ccc(F)cc2)c1 was tested. Which IC50 did it give?
Answer: The IC50 was 300 nM.

Question: With Cc1cc(C)cc(-c2[nH]c3ccccc3c2CCNCCCCc2ccc(NS(=O)(=O)c3ccccc3)cc2)c1 as the molecule, how does the IC50 read?
Answer: Its IC50 is 300 nM.

Question: Which IC50 does the source give for Cc1cc(C)cc(-c2[nH]c3ccccc3c2CCNCCCCc2ccc(NS(=O)(=O)C(C)C)cc2)c1 here?
Answer: Its IC50 is 220 nM.

Question: CCNC(=O)Nc1ccc(CCCCNCCc2c(-c3cc(C)cc(C)c3)[nH]c3ccccc23)cc1 was tested. Which IC50 did it give?
Answer: The IC50 was 28 nM.

Question: For CNC(=O)Nc1ccc(CCCCNCCc2c(-c3cc(C)cc(C)c3)[nH]c3ccccc23)cc1, which IC50 is on record?
Answer: Its IC50 is 48 nM.

Question: With CC(=O)Nc1ccc(CCCCNCCc2c(-c3cc(C)cc(C)c3)[nH]c3ccccc23)cc1 as the molecule, how does the IC50 read?
Answer: The IC50 was 200 nM.

Question: With CNS(=O)(=O)Nc1ccc(CCCCNCCc2c(-c3cc(C)cc(C)c3)[nH]c3ccccc23)cc1 as the molecule, how does the IC50 read?
Answer: The IC50 was 47 nM.

Question: How did the IC50 turn out when Cc1cc(C)cc(-c2[nH]c3ccccc3c2CCNCCCCc2ccc([N+](=O)[O-])cc2)c1 was run?
Answer: The IC50 was 500 nM.

Question: How did the IC50 turn out when Cc1cc(C)cc(-c2[nH]c3ccccc3c2CCNCCCCc2ccc(S(N)(=O)=O)cc2)c1 was run?
Answer: The IC50 was 36 nM.
